In experiment [1] the test system is Mus musculus. As to the kind of experiment: Inhibition of LPS-stimulated TNFalpha production in p38beta deficient C57BL/6 mouse plasma at 3 mg/kg, po after 90 mins by ELISA. The class given is functional, organism-based. The arrangement: dose 3 mg/kg.
Experiment [2] relates to Mus musculus. As to the kind of experiment: Inhibition of LPS-stimulated TNFalpha production in wild type C57BL/6 mouse plasma at 3 mg/kg, po after 90 mins by ELISA. It is filed as functional, organism-based. The arrangement: dose 3 mg/kg.
Experiment [3] concerns Mus musculus. Briefly: Inhibition of LPS-stimulated TNFalpha production in p38alpha T106M mutant expressing C57BL/6 mouse plasma at 3 mg/kg, po after 90 mins by ELISA. It is filed as functional, organism-based. The arrangement: dose 3 mg/kg. (An ELISA detects its analyte on a solid surface through an enzyme-linked reagent.)
Experiment [4] deals with Mus musculus. As to the kind of experiment: Inhibition of LPS-stimulated TNFalpha production in p38beta T106M mutant expressing C57BL/6 mouse plasma at 3 mg/kg, po after 90 mins by ELISA. The class given is functional, organism-based. The arrangement: dose 3 mg/kg.
Experiment [5] is described as follows: Inhibition of LPS-stimulated TNFalpha production in p38alpha expressing mouse peritoneal exudates cells by ELISA. The class given is functional.
Experiment [6] deals with Mitogen-activated protein kinase 11 (Homo sapiens, UniProt Q15759). Briefly: Inhibition of wild type p38beta.
In experiment [7] the test system is Mus musculus. Briefly: Inhibition of collagen antibody-induced arthritis in wild type C57BL/6 mouse at 3 mg/kg, po administered daily once 24 hrs after LPS challenge. The arrangement: dose 3 mg/kg. The class given is functional, organism-based.
Experiment [8] deals with Mitogen-activated protein kinase 11 (Homo sapiens, UniProt Q15759, T106M). Briefly: Inhibition of p38beta T106M mutant.
Experiment [9] concerns the target Mitogen-activated protein kinase 14 (Homo sapiens, UniProt Q16539, T106M). As to the kind of experiment: Inhibition of p38alpha T106M mutant.
The nature of experiment [10]: Inhibition of LPS-stimulated TNFalpha production in p38beta deficient mouse peritoneal exudates cells by ELISA. It is filed as functional.
The test system of experiment [11] is Mus musculus. As to the kind of experiment: Inhibition of collagen antibody-induced arthritis in p38beta T106M mutant expressing C57BL/6 mouse at 3 mg/kg, po administered daily once 24 hrs after LPS challenge. The class given is functional, organism-based. The arrangement: dose 3 mg/kg.
Experiment [12] has as its target Mitogen-activated protein kinase 14 (Homo sapiens, UniProt Q16539). As to the kind of experiment: Inhibition of wild type p38alpha.
Experiment [13] can be described thus: Inhibition of LPS-stimulated TNFalpha production in p38beta T106M mutant expressing mouse peritoneal exudates cells by ELISA. The class given is functional.
Experiment [14] is described as follows: Inhibition of LPS-stimulated TNFalpha production in p38alpha T106M mutant expressing mouse peritoneal exudates cells by ELISA. The class given is functional.
Experiment [15] has as its system Mus musculus. As to the kind of experiment: Inhibition of collagen antibody-induced arthritis in p38alpha T106M mutant expressing C57BL/6 mouse at 3 mg/kg, po administered daily once 24 hrs after LPS challenge. The class given is functional, organism-based. The arrangement: dose 3 mg/kg.

Active and inactive are the calls of the source. The calls are words filed in the database; no cut-off is given here. Some results are limits rather than exact numbers.

Mitogen-activated protein kinase 14 (Homo sapiens, UniProt Q16539), sequence (Q16539 whole entry): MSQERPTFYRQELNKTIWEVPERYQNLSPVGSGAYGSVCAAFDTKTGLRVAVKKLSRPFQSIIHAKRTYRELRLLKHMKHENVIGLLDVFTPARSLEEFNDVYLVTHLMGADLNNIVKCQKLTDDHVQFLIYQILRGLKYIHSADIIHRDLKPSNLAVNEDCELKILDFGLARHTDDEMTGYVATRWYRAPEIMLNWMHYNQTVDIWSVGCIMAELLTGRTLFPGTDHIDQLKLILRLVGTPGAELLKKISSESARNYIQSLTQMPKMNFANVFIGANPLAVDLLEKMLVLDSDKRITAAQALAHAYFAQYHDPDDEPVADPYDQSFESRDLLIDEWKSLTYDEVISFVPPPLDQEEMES
Mitogen-activated protein kinase 11 (Homo sapiens, UniProt Q15759), sequence (Q15759 whole entry): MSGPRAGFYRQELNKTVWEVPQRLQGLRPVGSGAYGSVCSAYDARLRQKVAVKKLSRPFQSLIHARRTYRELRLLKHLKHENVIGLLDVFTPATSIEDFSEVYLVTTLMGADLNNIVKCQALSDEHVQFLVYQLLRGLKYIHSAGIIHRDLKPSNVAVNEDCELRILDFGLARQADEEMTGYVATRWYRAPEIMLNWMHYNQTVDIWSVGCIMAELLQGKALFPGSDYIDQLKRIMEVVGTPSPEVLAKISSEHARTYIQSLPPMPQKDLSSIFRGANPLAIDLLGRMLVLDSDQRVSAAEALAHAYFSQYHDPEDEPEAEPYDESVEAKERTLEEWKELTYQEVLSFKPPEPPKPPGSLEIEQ
Mitogen-activated protein kinase 11 (Homo sapiens, UniProt Q15759, T106M), sequence (Q15759 whole entry T106M): as the sequence (Q15759 whole entry) above, with T106M counted along it
Mitogen-activated protein kinase 14 (Homo sapiens, UniProt Q16539, T106M), sequence (Q16539 2-360 T106M limits assumed): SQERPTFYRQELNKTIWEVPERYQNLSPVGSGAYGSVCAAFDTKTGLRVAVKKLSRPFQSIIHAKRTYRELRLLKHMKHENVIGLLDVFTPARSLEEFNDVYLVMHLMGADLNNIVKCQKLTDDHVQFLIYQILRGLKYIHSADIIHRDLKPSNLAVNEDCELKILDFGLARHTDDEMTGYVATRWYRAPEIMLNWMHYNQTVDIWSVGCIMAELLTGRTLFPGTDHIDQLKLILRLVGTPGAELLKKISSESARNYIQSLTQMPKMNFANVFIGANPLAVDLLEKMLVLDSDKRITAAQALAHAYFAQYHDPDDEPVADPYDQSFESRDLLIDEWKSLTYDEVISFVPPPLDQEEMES

For the molecule `C[C@H](Nc1cc(-c2c(-c3cccc(C(F)(F)F)c3)nc(C3CCNCC3)n2C)ccn1)c1ccccc1`, the outcome in the experiment with Mus musculus [1], in the experiment on Mus musculus [2] and in the experiment on Mus musculus [4] was Active. In addition, the result in the experiment on Mus musculus [3] was inactive.

As to `CC(C)(C)N1CCC(c2cc(-c3ccc(F)cc3F)c3ccc(=O)n(-c4c(Cl)cccc4Cl)c3c2)CC1`, the IC50 (commonly the concentration that gives 50% inhibition) in [5] worked out at 3.5 nM; in experiment [6], 0.25 nM; in experiment [8], 260 nM; in [9] it was 28 nM; in experiment [10] it was 6.8 nM; in [12], 0.08 nM. Further, the 50% inhibitory concentration (IC50) in experiment [13] was 8.3 nM; in experiment [14], more than 250 nM. Also, the result in the experiment with Mus musculus [7] and in the experiment with Mus musculus [11] was Active. The outcome in the experiment on Mus musculus [15] was inactive.

Values taken from ChEMBL document CHEMBL1156514, “Chemical genetics define the roles of p38alpha and p38beta in acute and chronic inflammation” (J Biol Chem, 2007).
